From patent US20210322582A1, “RADIOACTIVE IMIDAZOTHIADIAZOLE DERIVATIVE COMPOUND” (Nihon Medi-Physics Co., Ltd., priority 2018, published 2021)

How the values were obtained:
Format in all cases: in vivo
HT-29 tumor [1] = experiment: SPECT/CT imaging using [^111In]ITDA1; settings: HT-29 cancer-bearing mouse, 24 hours from administration
Description: (§1) HT-29 cells (5×10^6 cells/mouse) and MDA-MB-231 cells (5×10^6 cells/mouse) were subcutaneously inoculated into the left shoulders of 5-week old male BALB/c nude mice, respectively. A saline solution (150 μL) in which [^111In]ITDA1 (23.8 to 26.2 MBq) had been dissolved was administered to each of the cancer-bearing mice via the tail vein. Each of the mice was subjected to SPECT/CT imaging after the lapse of 1, 4, 8, and 24 hours from the administration. U-SPECT-II/CT (single-pinhole collimator 0.6 or 1.0 mm, resolution: 0.45 mm) manufactured by Milab was used as the SPECT/CT device, and data were collected for 60 minutes in 1, 4, 8, and 24 hours from the administration.
(§2) The collected data were reconstructed by a three-dimensional ordered-subset expectation maximization (3D-OSEM) method. The results of HT-29 cancer-bearing mouse are shown in FIG. 6A, and the results of MDA-MB-231 cancer-bearing mouse are shown in FIG. 6B.

MDA-MB-231 tumor = experiment: SPECT/CT imaging using [^111In]ITDA1; settings: MDA-MB-231 cancer-bearing mouse, 24 hours from administration
Description: as §1, §2

HT-29 tumor [2] = experiment: Biodistribution of [^111In]ITDA2 in HT-29 tumor cancer-bearing mouse; settings: HT-29 tumor mouse
Description: HT-29 cells (5×10^6 cells/mouse) and MDA-MB-231 cells (1×10^7 cells/mouse) were subcutaneously inoculated into the left shoulders of 5-week old male BALB/c nude mice, respectively, and the mice were used when the tumor diameter reached 6 to 10 mm. A saline solution (100 μL) in which [^111In]ITDA2 (40 kBq) had been dissolved was administered to each of the HT-29 tumor or MDA-MB-231 tumor cancer-bearing mice (n=5) via the tail vein. The HT-29 tumor cancer-bearing mice were slaughtered after the lapse of 1, 4, 8, and 24 hours from the administration, the MDA-MB-231 tumor cancer-bearing mouse was slaughtered after the lapse of 24 hours from the administration, and the blood, spleen, pancreas, stomach, intestines, kidney, liver, heart, lungs, brain, tumor, and muscle were recovered from each of the mice. The weight of each organ was measured, and the amount of radioactivity in each organ was measured by using a gamma counter. The accumulation of radioactivity in each organ except for stomach was expressed by % injected dose/g organ obtained by dividing the ratio of the amount of radioactivity of each organ to the administered amount of radioactivity by the organ weight. The stomach was expressed by % injected dose.

[3] = system: MDA-MB-231-transplanted tumor; experiment: Biodistribution of [^111In]ITDA3 in MDA-MB-231 cancer-bearing mouse; settings: MDA-MB-231 mouse, 24 hours after administration
Description: HT-29 cells and MDA-MB-231 cells (5×10^6 cells/mouse) were subcutaneously inoculated into the left shoulders of 5-week old male BALB/c nude mice, respectively. A saline solution (100 μL) in which[^111In]ITDA3 (40 kBq) had been dissolved was administered to each of the cancer-bearing mice (n=5) via the tail vein. The HT-29 cancer-bearing mice were slaughtered after the lapse of 1, 4, and 24 hours from the administration, the MDA-MB-231 cancer-bearing mouse was slaughtered after the lapse of 24 hours from the administration, and the blood, spleen, pancreas, stomach, intestines, kidney, liver, heart, lungs, brain, HT-29 or MDA-MB-231-transplanted tumor, and muscle were recovered from each of the mice. The weight of each organ was measured, and the amount of radioactivity in each organ was measured by using a gamma counter. The accumulation of radioactivity in each organ except for stomach was expressed by % ID (injected dose)/g obtained by dividing the ratio of the amount of radioactivity of each organ to the administered amount of radioactivity by the organ weight. The stomach was expressed by % ID (injected dose).

NS(=O)(=O)c1nn2cc(-c3ccc(NC(=O)CN4CCN(CC(=O)O)CCN(CC(=O)O)CCN(CC(=O)O)CC4)cc3)nc2s1.[111In+3] [[^111In]ITDA1, [^111In]indium(III)2,2′,2″-(10-(2-oxo-2-((4-(2-sulfamoylimidazo[2,1-b][1,3,4]thiadiazol-6-yl)phenyl)amino)ethyl)-1,4,7,10-tetraazacyclododecan-1,4,7-triyl) triacetic acid]
Accumulation of radioactivity in the transplanted tumor (SPECT/CT) (HT-29 tumor [1]): highly observed | Accumulation in the transplanted tumor (SPECT/CT) (MDA-MB-231 tumor): not observed

NS(=O)(=O)c1nn2cc(-c3ccc(NC(=O)CN4CCN(CC(=O)O)CCN(CC(=O)Nc5ccc(-c6cn7nc(S(N)(=O)=O)sc7n6)cc5)CCN(CC(=O)O)CC4)cc3)nc2s1.[111In+3] [[^111In]ITDA2, [^111In]indium(III)2,2′-(4,10-bis(2-oxo-2-((4-(2-sulfamoylimidazo[2,1-b][1,3,4]thiadiazol-6-yl)phenyl)amino)ethyl)-1,4,7,10-tetraazacyclododecan-1,7-diyl) diacetic acid]
Biokinetics: Blood (HT-29 tumor [2]; 1 hour): 0.27 ± 0.03 % injected dose/g organ | Biokinetics: Brain (HT-29 tumor [2]; 1 hour): 0.30 ± 0.04 % injected dose/g organ | Biokinetics: Heart (HT-29 tumor [2]; 1 hour): 5.64 ± 1.01 % injected dose/g organ | Biokinetics: Intestines (HT-29 tumor [2]; 1 hour): 11.24 ± 1.54 % injected dose/g organ | Biokinetics: Kidney (HT-29 tumor [2]; 1 hour): 137 ± 11.1 % injected dose/g organ | Biokinetics: Liver (HT-29 tumor [2]; 1 hour): 4.11 ± 0.54 % injected dose/g organ | Biokinetics: Lungs (HT-29 tumor [2]; 1 hour): 6.10 ± 0.97 % injected dose/g organ | Biokinetics: Muscle (HT-29 tumor [2]; 1 hour): 2.05 ± 0.61 % injected dose/g organ | Biokinetics: Pancreas (HT-29 tumor [2]; 1 hour): 20.01 ± 6.77 % injected dose/g organ | Biokinetics: Spleen (HT-29 tumor [2]; 1 hour): 0.40 ± 0.27 % injected dose/g organ | Biokinetics: Stomach (HT-29 tumor [2]; 1 hour): 3.99 ± 0.49 % injected dose | Biokinetics: Tumor (HT-29 tumor [2]; 1 hour): 2.11 ± 0.32 % injected dose/g organ | Tumor/blood (HT-29 tumor [2]; 1 hour): 7.78 ± 0.95 | Tumor/muscle (HT-29 tumor [2]; 1 hour): 1.12 ± 0.45 | Biokinetics: Blood (HT-29 tumor [2]; 4 hours): 0.18 ± 0.01 % injected dose/g organ | Biokinetics: Brain (HT-29 tumor [2]; 4 hours): 0.30 ± 0.04 % injected dose/g organ | Biokinetics: Heart (HT-29 tumor [2]; 4 hours): 2.81 ± 0.39 % injected dose/g organ | Biokinetics: Intestines (HT-29 tumor [2]; 4 hours): 15.32 ± 1.51 % injected dose/g organ | Biokinetics: Kidney (HT-29 tumor [2]; 4 hours): 143 ± 12.0 % injected dose/g organ | Biokinetics: Liver (HT-29 tumor [2]; 4 hours): 4.87 ± 1.08 % injected dose/g organ | Biokinetics: Lungs (HT-29 tumor [2]; 4 hours): 4.25 ± 0.76 % injected dose/g organ | Biokinetics: Muscle (HT-29 tumor [2]; 4 hours): 2.00 ± 0.21 % injected dose/g organ | Biokinetics: Pancreas (HT-29 tumor [2]; 4 hours): 20.88 ± 2.49 % injected dose/g organ | Biokinetics: Spleen (HT-29 tumor [2]; 4 hours): 0.13 ± 0.10 % injected dose/g organ | Biokinetics: Stomach (HT-29 tumor [2]; 4 hours): 5.09 ± 0.66 % injected dose | Biokinetics: Tumor (HT-29 tumor [2]; 4 hours): 2.47 ± 0.30 % injected dose/g organ | Tumor/blood (HT-29 tumor [2]; 4 hours): 13.85 ± 2.45 | Tumor/muscle (HT-29 tumor [2]; 4 hours): 1.24 ± 0.19 | Biokinetics: Blood (HT-29 tumor [2]; 8 hours): 0.20 ± 0.01 % injected dose/g organ | Biokinetics: Brain (HT-29 tumor [2]; 8 hours): 0.35 ± 0.05 % injected dose/g organ | Biokinetics: Heart (HT-29 tumor [2]; 8 hours): 1.89 ± 0.35 % injected dose/g organ | Biokinetics: Intestines (HT-29 tumor [2]; 8 hours): 15.40 ± 0.94 % injected dose/g organ | Biokinetics: Kidney (HT-29 tumor [2]; 8 hours): 110 ± 13.7 % injected dose/g organ | Biokinetics: Liver (HT-29 tumor [2]; 8 hours): 4.58 ± 0.76 % injected dose/g organ | Biokinetics: Lungs (HT-29 tumor [2]; 8 hours): 2.87 ± 1.08 % injected dose/g organ | Biokinetics: Muscle (HT-29 tumor [2]; 8 hours): 1.39 ± 0.20 % injected dose/g organ | Biokinetics: Pancreas (HT-29 tumor [2]; 8 hours): 13.15 ± 4.17 % injected dose/g organ | Biokinetics: Spleen (HT-29 tumor [2]; 8 hours): 0.32 ± 0.20 % injected dose/g organ | Biokinetics: Stomach (HT-29 tumor [2]; 8 hours): 6.78 ± 0.95 % injected dose | Biokinetics: Tumor (HT-29 tumor [2]; 8 hours): 3.10 ± 0.35 % injected dose/g organ | Tumor/blood (HT-29 tumor [2]; 8 hours): 15.31 ± 1.69 | Tumor/muscle (HT-29 tumor [2]; 8 hours): 2.28 ± 0.39 | Biokinetics: Blood (HT-29 tumor [2]; 24 hours): 0.26 ± 0.02 % injected dose/g organ | Biokinetics: Brain (HT-29 tumor [2]; 24 hours): 0.37 ± 0.09 % injected dose/g organ | Biokinetics: Heart (HT-29 tumor [2]; 24 hours): 1.58 ± 0.42 % injected dose/g organ | Biokinetics: Intestines (HT-29 tumor [2]; 24 hours): 11.14 ± 2.06 % injected dose/g organ | Biokinetics: Kidney (HT-29 tumor [2]; 24 hours): 76.4 ± 17.2 % injected dose/g organ | Biokinetics: Liver (HT-29 tumor [2]; 24 hours): 3.50 ± 0.81 % injected dose/g organ | Biokinetics: Lungs (HT-29 tumor [2]; 24 hours): 2.15 ± 0.49 % injected dose/g organ | Biokinetics: Muscle (HT-29 tumor [2]; 24 hours): 1.00 ± 0.25 % injected dose/g organ | Biokinetics: Pancreas (HT-29 tumor [2]; 24 hours): 7.23 ± 1.40 % injected dose/g organ | Biokinetics: Spleen (HT-29 tumor [2]; 24 hours): 0.27 ± 0.13 % injected dose/g organ | Biokinetics: Stomach (HT-29 tumor [2]; 24 hours): 9.33 ± 0.72 % injected dose | Biokinetics: Tumor (HT-29 tumor [2]; 24 hours): 5.93 ± 0.88 % injected dose/g organ | Tumor/blood (HT-29 tumor [2]; 24 hours): 22.63 ± 3.31 | Tumor/muscle (HT-29 tumor [2]; 24 hours): 6.18 ± 1.45

NS(=O)(=O)c1nn2cc(-c3ccc(NC(=O)CCC(C(=O)O)N4CCN(CC(=O)[O-])CCN(CC(=O)[O-])CCN(CC(=O)[O-])CC4)cc3)nc2s1.[111In+3] (stereo not drawn) [[^111In]ITDA3]
Accumulation of radioactivity: Blood [3]: 0.06 ± 0.02 % ID/g | Accumulation of radioactivity: Brain [3]: 0.24 ± 0.04 % ID/g | Accumulation of radioactivity: Heart [3]: 1.24 ± 0.19 % ID/g | Accumulation of radioactivity: Intestines [3]: 6.66 ± 0.86 % ID/g | Accumulation of radioactivity: Kidney [3]: 49.65 ± 5.04 % ID/g | Accumulation of radioactivity: Liver [3]: 2.96 ± 0.64 % ID/g | Accumulation of radioactivity: Lungs [3]: 0.93 ± 0.18 % ID/g | Accumulation of radioactivity: MDA-MB-231 tumor [3]: 0.72 ± 0.27 % ID/g | Accumulation of radioactivity: Muscle [3]: 0.99 ± 0.26 % ID/g | Accumulation of radioactivity: Pancreas [3]: 2.00 ± 0.54 % ID/g | Accumulation of radioactivity: Spleen [3]: 0.12 ± 0.02 % ID/g | Accumulation of radioactivity: Stomach [3]: 5.49 ± 0.55 % ID | Tumor/blood [3]: 11.97 ± 6.08 | Tumor/muscle [3]: 0.77 ± 0.32
